Assay results taken from patent US10222368B2 (priority 2012, dated 2019).

Experiments:
α7nAChR-FLNA association = target: T1, α7nAChR-FLNA association (Rattus norvegicus, UniProt A0A8I5ZV49); test: Rat frontal cortical synaptosomes treated with Aβ42, anti-FLNA immunoprecipitation / Western blot; type: cell-based; settings: 0.1 or 1 nM compound, simultaneously with or 10 min prior to Aβ42
T1 construct: from tissue; host or cells: rat frontal cortical synaptosomes
From the text: The α7nAChR-FLNA complexes in the solubilized synaptosomes were immunoprecipitated with immobilized anti-FLNA and the α7nAChR and FLNA levels in the anti-FLNA immunoprecipitates determined by Western blotting (FIG. 14A) and quantified by densitometry for illustrative compounds (FIG. 14B). n=3. […] The letter designation “M” that accompanies many of the “C-series” compounds is omitted from FIG. 14, the remaining figures and most discussions of the figures and compounds hereinafter for ease in expression. Structural formulas of the compounds used in this and the other figures are provided hereinafter.
The complexes in the solubilized synaptosomes, and α7nAChR, TLR4 and FLNA levels in the anti-FLNA immunoprecipitates were determined by Western blotting (FIG. 15A) in which numerals outside of and to the left of the blots are as discussed before. Amounts present in the blots were quantified by densitometry (FIG. 15B). […] Structural formulas of the compounds used in this and the other figures are provided hereinafter.

[1] = target: FLNA pentapeptide VAKGL (SEQ ID NO: 1) (Homo sapiens, UniProt P21333); test: FITC-NLX-based FLNA screening assay; type: binding; settings: for inhibition at 0.0001 µM: 0.1 nM compound; for inhibition at 0.0001 µM / inhibition at 0.001 µM / inhibition at 0.01 µM / inhibition at 0.1 µM / inhibition at 1 µM: 100 nM frozen-stored FITC-NLX, average of two runs, read-out: Percent inhibition of FITC-NLX binding, preliminary study; for inhibition at 0.001 µM: 1 nM compound; for inhibition at 0.01 µM: 10 nM compound; for inhibition at 0.1 µM: 100 nM compound; for inhibition at 1 µM: 1 μM compound
mu opiate receptor (MOR) = target: T2, mu opiate receptor (MOR) (Rattus norvegicus, UniProt P33535); test: MOR agonist activity using [35S]GTPγS binding assay in striatal membranes; type: biochemical; settings: for MOR agonist activity ([35S]GTPγS binding to Gαo), preliminary study: average of two runs
T2 construct: from tissue; host or cells: striatal tissue (membrane preparation)
T2 sequence (P33535 whole entry): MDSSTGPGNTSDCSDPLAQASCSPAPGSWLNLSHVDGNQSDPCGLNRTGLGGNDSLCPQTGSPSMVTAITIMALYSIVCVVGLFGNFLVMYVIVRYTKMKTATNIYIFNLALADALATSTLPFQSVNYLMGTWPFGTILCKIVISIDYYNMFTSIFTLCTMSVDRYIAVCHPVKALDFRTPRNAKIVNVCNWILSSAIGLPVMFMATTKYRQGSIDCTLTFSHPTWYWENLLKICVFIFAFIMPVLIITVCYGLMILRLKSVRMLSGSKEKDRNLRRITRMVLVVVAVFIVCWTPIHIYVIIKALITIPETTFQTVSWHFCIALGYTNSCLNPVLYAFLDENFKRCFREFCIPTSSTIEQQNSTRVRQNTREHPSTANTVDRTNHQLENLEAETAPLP
Method: To assess the mu opiate receptor (MOR) agonist activity of positive compounds from the FLNA screening, compounds were tested in a [^35S]GTPγS binding assay using striatal membranes. […] This assay measures a functional consequence of receptor occupancy at one of the earliest receptor-mediated events. The assay permits for traditional pharmacological parameters of potency, efficacy and antagonist affinity, with the advantage that agonist measures are not subjected to amplification or other modulation that may occur when analyzing parameters further downstream of the receptor.
Thus, striatal tissue was homogenized in 10 volumes of ice cold 25 mM HEPES buffer, pH 7.4, which contained 1 mM EGTA, 100 mM sucrose, 50 μg/ml leupeptin, 0.04 mM PMSF, 2 μg/ml soybean trypsin inhibitor and 0.2% 2-mercaptoethanol. The homogenates were centrifuged at 800×g for 5 minutes and the supernatants were centrifuged at 49,000×g for 20 minutes.
The resultant striatal membrane preparation (200 μg) was admixed and maintained (incubated) at 30° C. for 5 minutes in reaction buffer as above that additionally contained 1 mM MgCl2 and 0.5 nM [^35S]GTPγS (0.1 μCi/assay, PerkinElmer Life and Analytical Sciences) in a total volume of 250 μl and continued for 5 minutes in the absence or presence of 0.1-10 μM of an assayed compound of interest. The reaction was terminated by dilution with 750 μl of ice-cold reaction buffer that contained 20 mM MgCl2 and 1 mM EGTA and immediate centrifugation at 16,000×g for 5 minutes.
Normal rabbit serum (1 μl) was added to 1 ml of lysate and incubated at 25° C. for 30 minutes. Nonspecific immune complexes were removed by incubation with 25 μl of protein A/G-conjugated agarose beads at 25° C. for 30 minutes followed by centrifugation at 5,000×g at 4° C. for 5 minutes. The supernatant was divided and separately incubated at 25° C. for 30 minutes with antibodies raised against Gαo proteins (1:1,000 dilutions).
The immunocomplexes so formed were collected by incubation at 25° C. for 30 minutes with 40 μl of agarose-conjugated protein A/G beads and centrifugation at 5,000×g at 4° C. for 5 minutes. The pellet was washed and suspended in buffer containing 50 mM Tris-HCl, pH 8.0, and 1% NP-40. The radioactivity in the suspension was determined by liquid scintillation spectrometry.

T1 sequence (A0A8I5ZV49 1-2647): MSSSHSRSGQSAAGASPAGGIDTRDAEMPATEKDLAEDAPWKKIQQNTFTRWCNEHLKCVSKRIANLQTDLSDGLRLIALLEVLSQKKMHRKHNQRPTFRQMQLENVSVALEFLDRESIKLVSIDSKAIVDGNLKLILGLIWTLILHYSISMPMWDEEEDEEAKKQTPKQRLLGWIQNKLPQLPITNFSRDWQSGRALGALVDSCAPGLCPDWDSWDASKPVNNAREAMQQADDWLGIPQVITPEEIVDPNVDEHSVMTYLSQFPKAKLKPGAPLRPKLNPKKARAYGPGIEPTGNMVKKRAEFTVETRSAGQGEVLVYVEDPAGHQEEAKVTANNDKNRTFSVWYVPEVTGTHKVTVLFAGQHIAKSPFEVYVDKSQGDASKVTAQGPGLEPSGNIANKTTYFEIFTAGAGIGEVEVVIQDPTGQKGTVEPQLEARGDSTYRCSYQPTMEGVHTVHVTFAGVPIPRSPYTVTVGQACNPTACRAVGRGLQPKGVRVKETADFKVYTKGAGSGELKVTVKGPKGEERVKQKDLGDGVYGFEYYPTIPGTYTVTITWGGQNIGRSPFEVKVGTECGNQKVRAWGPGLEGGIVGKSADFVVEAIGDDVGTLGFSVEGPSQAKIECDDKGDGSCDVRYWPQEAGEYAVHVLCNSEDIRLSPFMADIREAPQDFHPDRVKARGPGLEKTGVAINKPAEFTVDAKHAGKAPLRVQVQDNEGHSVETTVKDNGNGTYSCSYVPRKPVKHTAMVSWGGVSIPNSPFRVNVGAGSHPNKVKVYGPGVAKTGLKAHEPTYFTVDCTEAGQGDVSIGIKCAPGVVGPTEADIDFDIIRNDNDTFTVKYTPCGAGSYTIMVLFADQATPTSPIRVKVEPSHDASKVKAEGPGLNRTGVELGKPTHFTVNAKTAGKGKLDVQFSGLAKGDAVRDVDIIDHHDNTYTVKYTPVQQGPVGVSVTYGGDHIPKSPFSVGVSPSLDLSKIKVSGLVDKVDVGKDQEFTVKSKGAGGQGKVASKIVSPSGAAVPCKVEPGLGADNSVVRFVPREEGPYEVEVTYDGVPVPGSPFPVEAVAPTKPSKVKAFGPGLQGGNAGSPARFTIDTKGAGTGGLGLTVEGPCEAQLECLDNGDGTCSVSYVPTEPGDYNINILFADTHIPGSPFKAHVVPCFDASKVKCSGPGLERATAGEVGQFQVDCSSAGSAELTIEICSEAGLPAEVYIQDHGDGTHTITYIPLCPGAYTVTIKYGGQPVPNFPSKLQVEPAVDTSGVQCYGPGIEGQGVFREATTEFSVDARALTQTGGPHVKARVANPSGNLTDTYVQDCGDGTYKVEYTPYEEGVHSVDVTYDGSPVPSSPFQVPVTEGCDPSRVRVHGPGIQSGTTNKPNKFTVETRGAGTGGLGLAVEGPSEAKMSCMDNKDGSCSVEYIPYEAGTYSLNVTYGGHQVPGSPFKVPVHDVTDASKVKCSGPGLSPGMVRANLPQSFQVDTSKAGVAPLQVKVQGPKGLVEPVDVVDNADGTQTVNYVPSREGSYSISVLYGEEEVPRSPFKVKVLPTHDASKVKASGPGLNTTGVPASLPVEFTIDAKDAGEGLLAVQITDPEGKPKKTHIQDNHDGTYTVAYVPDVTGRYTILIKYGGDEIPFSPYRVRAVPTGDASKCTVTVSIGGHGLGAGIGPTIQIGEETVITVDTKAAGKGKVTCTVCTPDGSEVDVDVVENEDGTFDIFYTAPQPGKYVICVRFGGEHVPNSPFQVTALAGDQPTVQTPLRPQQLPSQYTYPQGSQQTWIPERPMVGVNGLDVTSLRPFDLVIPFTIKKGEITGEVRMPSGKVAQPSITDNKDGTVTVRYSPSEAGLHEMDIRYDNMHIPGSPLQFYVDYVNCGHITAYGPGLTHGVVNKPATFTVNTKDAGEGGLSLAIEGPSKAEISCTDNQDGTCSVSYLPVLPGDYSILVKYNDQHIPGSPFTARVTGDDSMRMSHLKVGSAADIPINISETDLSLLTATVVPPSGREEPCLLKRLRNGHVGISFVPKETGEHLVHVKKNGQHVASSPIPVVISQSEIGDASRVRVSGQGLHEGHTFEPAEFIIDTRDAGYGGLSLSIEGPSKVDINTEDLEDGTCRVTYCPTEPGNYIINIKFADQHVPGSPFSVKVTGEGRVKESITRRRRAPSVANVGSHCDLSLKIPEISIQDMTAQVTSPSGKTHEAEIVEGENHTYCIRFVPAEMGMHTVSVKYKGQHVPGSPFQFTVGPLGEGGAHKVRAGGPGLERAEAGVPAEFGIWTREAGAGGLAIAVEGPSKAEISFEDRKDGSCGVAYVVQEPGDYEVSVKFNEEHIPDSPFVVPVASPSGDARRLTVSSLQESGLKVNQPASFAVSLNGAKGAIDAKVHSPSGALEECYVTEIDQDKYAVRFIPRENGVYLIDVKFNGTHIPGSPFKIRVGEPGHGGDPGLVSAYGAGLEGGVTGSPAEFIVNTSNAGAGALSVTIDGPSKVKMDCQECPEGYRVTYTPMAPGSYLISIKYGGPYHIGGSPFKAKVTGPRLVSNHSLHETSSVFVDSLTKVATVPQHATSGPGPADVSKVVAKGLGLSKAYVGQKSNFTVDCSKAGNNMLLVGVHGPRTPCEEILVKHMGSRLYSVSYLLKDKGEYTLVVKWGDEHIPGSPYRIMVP

Compound | Effect on Aβ42-induced α7nAChR-FLNA association (in words) (α7nAChR-FLNA association) | inhibition at 0.0001 µM [1] | inhibition at 0.001 µM [1] | inhibition at 0.01 µM [1] | inhibition at 0.1 µM [1] | inhibition at 1 µM [1] | MOR agonist activity ([35S]GTPγS binding to Gαo), preliminary study (mu opiate receptor (MOR); 0.1 μM compound as agonist) | MOR agonist activity ([35S]GTPγS binding to Gαo), preliminary study (mu opiate receptor (MOR); 1 μM + βNFA) | MOR agonist activity ([35S]GTPγS binding to Gαo), preliminary study (mu opiate receptor (MOR); 1 μM compound as agonist) | Binding to the FLNA pentapeptide of SEQ ID NO: 1 (in words) [1] | also measured
CC1CCC(C(C)C)C(OCC(CN2CC(C)OC(C)C2)NCc2ccccc2)C1 (stereo not shown) [Compound A0033] | reduce α7nAChR-FLNA association | – | – | – | – | – | – | – | – | – | –
Cc1ccc(S(=O)(=O)N2CCOC23CCN(CC2CCC2)CC3)cc1 [Compound 9] | – | 22.5% | 24.8% | 27.7% | 35.3% | 49.6% | 156.6% | 56.6% | 197.2% | – | –
O=S(=O)(c1ccc(OC(F)(F)F)cc1)N1CCOC12CCN(CC1CC1)CC2 [Compound 4] | – | 18.8% | 21.3% | 17.9% | 28.8% | 42.9% | 133.9% | 49.5% | 165.2% | – | –
COc1ccc(OCC(O)CN2CCc3ccccc3C2)cc1 (stereo not shown) [Compound A0053] | reduce α7nAChR-FLNA association | – | – | – | – | – | – | – | – | – | –
C=CCN1CCC2(CC1)OCCN2S(=O)(=O)c1ccc(C)cc1 [Compound 10] | – | 27.5% | 27.3% | 26.6% | 27.3% | 34.5% | 163.1% | 60.4% | 191.8% | – | –
CN1CCC2(CC1)NCC(=O)N2Cc1ccccc1 [Compound C0105M] | reduce α7nAChR-FLNA association | – | – | – | – | – | – | – | – | – | MOR agonist activity, [35S]GTPγS binding, FLNA-binding compound as agonist at 0.1 μM (mu opiate receptor (MOR); 0.1 μM compound, striatal membranes, Series C-2): 198.1%; MOR agonist activity, [35S]GTPγS binding, 1 μM + BFNA (mu opiate receptor (MOR); 1 μM compound + 1 μM β-FNA (MOR antagonist), striatal membranes): 73.1%; MOR agonist activity, [35S]GTPγS binding, FLNA-binding compound as agonist at 1 μM (mu opiate receptor (MOR); 1 μM compound, striatal membranes, Series C-2): 220.3%
Nalorphine [reference compound] | – | – | – | – | – | – | – | – | – | bind well | –
Nalbuphine [reference compound] | – | – | – | – | – | – | – | – | – | bind well | –
CC1CCC(C(C)C)C(OCC(O)CN2CCc3ccccc3C2)C1 (stereo not shown) [Compound A0040] | reduce α7nAChR-FLNA association | – | – | – | – | – | – | – | – | – | –
CO[C@]12CC[C@@]3(C[C@@H]1C(C)(O)C(C)(C)C)[C@H]1Cc4ccc(O)c5c4[C@@]3(CCN1CC1CC1)[C@H]2O5 (stereo partly shown) [Buprenorphine, reference compound] | – | – | – | – | – | – | – | – | – | bind well | –
